Our source for the Ki values is US20240400553A1, “AMINE BASED MATRIPTASE 2 INHIBITORS AND USES THEREOF” (Disc Medicine, Inc., priority 2023, published 2024).

For orientation: Ki means the equilibrium dissociation constant of an inhibitor or competing ligand from its target.

The target of this experiment is T1, Human Recombinant Matriptase 2 (Homo sapiens, UniProt Q8IU80).
T1 construct: made in house
T1 sequence (Q8IU80 1-811): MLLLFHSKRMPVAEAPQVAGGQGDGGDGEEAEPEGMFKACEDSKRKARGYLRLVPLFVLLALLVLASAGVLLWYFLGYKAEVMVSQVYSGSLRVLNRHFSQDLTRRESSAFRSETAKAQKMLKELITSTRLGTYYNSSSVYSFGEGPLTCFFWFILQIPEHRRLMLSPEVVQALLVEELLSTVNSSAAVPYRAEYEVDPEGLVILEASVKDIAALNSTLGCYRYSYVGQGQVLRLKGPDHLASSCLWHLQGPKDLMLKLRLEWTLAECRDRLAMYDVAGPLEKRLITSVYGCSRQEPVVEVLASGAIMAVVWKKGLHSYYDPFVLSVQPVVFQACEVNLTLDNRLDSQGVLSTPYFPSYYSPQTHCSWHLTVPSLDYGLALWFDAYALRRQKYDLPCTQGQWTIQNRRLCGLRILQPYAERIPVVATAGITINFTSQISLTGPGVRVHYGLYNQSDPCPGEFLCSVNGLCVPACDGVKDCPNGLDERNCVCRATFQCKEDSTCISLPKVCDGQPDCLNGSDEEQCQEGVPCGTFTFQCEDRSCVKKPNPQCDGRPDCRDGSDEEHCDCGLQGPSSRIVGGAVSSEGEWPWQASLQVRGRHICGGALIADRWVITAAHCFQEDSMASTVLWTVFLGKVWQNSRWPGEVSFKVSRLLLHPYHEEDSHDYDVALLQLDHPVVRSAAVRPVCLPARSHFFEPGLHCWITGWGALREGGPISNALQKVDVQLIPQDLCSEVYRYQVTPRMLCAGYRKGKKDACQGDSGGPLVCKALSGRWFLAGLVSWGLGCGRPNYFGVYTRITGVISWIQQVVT
The experiment is described as follows: Matriptase 2 inhibition, fluorescence based assay (Method I). Format: biochemical. Conditions: Table A; Ki of Matriptase-2; read-out: Mat-2 Ki. In a few lines: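 Fluorogenic readout (Ex 360/Em 480 nm) taken 60 min after adding 62 μM Boc-Gln-Ala-Arg-AMC, following 30-min enzyme–compound preincubation at 25 °C. Conditions: 3.5 nM in-house enzyme, pH 7.5 Tris/NaCl/gelatin buffer, 1% DMSO; percent inhibition versus concentration fitted by variable-slope sigmoidal regression.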
Regarding `Cn1ccnc1COC(=O)c1cc2ccc(CN)nc2n1Cc1cc(NS(=O)(=O)Cc2ccccc2)cc2ccccc12` [Compound 137, (1-methyl-1H-imidazol-2-yl)methyl 6-(amino-methyl)-1-{[3-(phenyl-methanesulfonamido)-naphthalen-1-yl]methyl}-1H-pyrrolo[2,3-b]pyr-idine-2-carboxylate], the Ki is at most 100 nM. Take `CN(C)C(=O)COC(=O)c1cc2ccc(CN)nc2n1Cc1cc(NS(=O)(=O)Cc2ccccc2)cc2ccccc12` [Compound 139, (dimethylcarbamoyl)-methyl 6-(aminomethyl)-1-{[3-(phenylmethane-sulfonamido)naphthalen-1-yl]methyl}-1H-pyrrolo-[2,3-b]pyridine-2-car-boxylate]: the Ki is 100 to 500 nM.

Turning to `Cc1nccn1CCOC(=O)c1cc2ccc(CN)nc2n1Cc1cc(NS(=O)(=O)Cc2ccccc2)cc2ccccc12` [Compound 140, 2-(2-methyl-1H-imid-azol-1-yl)ethyl 6-(amino-methyl)-1-{[3-(phenyl-methanesulfonamido)-naphthalen-1-yl]methyl}-1H-pyrrolo[2,3-b]pyr-idine-2-carboxylate], the Ki lay within 100 to 500 nM. For `CC(=O)N(C)CCOC(=O)c1cc2ccc(CN)nc2n1Cc1cc(NS(=O)(=O)Cc2ccccc2)cc2ccccc12` [Compound 141, 2-(N-methylacetamido)-ethyl 6-(aminomethyl)-1-{[3-(phenylmethane-sulfonamido)naphthalen-1-yl]methyl}-1H-pyrrolo-[2,3-b]pyridine-2-car-boxylate], the Ki is 100 to 500 nM. The same measure for `COCCN1CCC(COC(=O)c2cc3ccc(CN)nc3n2Cc2cc(NS(=O)(=O)Cc3ccccc3)cc3ccccc23)CC1` [Compound 142, [1-(2-methoxyethyl)-piperidin-4-yl]methyl 6-(aminomethyl)-1-{[3-(phenylmethanesulfon-amido)naphthalen-1-yl]-methyl}-1H-pyrrolo[2,3-b]pyridine-2-carboxylate]: 100 to 500 nM; for `CN1CCC(COC(=O)c2cc3ccc(CN)nc3n2Cc2cc(NS(=O)(=O)Cc3cccs3)cc3ccccc23)CC1` [Compound 146, (1-methylpiperidin-4-yl)-methyl 6-(aminometh-yl)-1-({3-[(thiophen-2-yl)methanesulfonamido]-naphthalen-1-yl}methyl)-1H-pyrrolo[2,3-b]pyr-idine-2-carboxylate]: at most 100 nM. The same measure for `CN1CCC(COC(=O)c2cc3ccc(CN)nc3n2Cc2cc(NS(=O)(=O)Cc3sccc3F)cc3ccccc23)CC1` [Compound 147, (1-methylpiperidin-4-yl)-methyl 6-(aminomethyl)-1-({3-[(3-fluorothiophen-2-yl)methanesulfon-amido]naphthalen-1-yl}-methyl)-1H-pyrrolo[2,3-b]pyridine-2-carboxylate]: at most 100 nM; for `CN(C)CCOC(=O)c1cc2ccc(CN)nc2n1Cc1cc(NS(=O)(=O)Cc2cccs2)cc2ccccc12` [Compound 148, 2-(dimethylamino)ethyl 6-(aminomethyl)-1-({3-[(thiophen-2-yl)methane-sulfonamido]naphthalen-1-yl}methyl)-1H-pyr-rolo[2,3-b]pyridine-2-carboxylate]: at most 100 nM. The same measure for `CN1CCC(COC(=O)c2cc3ccc(CN)nc3n2Cc2cc(NS(=O)(=O)Cc3ccc(F)s3)cc3ccccc23)CC1` [Compound 149, (1-methylpiperidin-4-yl)methyl 6-(amino-methyl)-1-({3-[(5-fluoro-thiophen-2-yl)methane-sulfonamido]naphthalen-1-yl}methyl)-1H-pyr-rolo[2,3-b]pyridine-2-carboxylate]: at most 100 nM; for `CN1CCC(CCOC(=O)c2cc3ccc(CN)nc3n2Cc2cc(NS(=O)(=O)Cc3cccs3)cc3ccccc23)CC1` [Compound 150, 2-(1-methylpiperidin-4-yl)ethyl 6-(aminometh-yl)-1-({3-[(thiophen-2-yl)methanesulfonamido]-naphthalen-1-yl}methyl)-1H-pyrrolo[2,3-b]pyr-idine-2-carboxylate]: at most 100 nM; for `NCc1ccc2cc(C(=O)OCCN3CCOCC3)n(Cc3cc(NS(=O)(=O)Cc4cccs4)cc4ccccc34)c2n1` [Compound 151, 2-(morpholin-4-yl)ethyl 6-(aminomethyl)-1-({3-[(thiophen-2-yl)methane-sulfonamido]naphthalen-1-yl}methyl)-1H-pyr-rolo[2,3-b]pyridine-2-carboxylate]: at most 100 nM. With `CNCCOC(=O)c1cc2ccc(CN)nc2n1Cc1cc(NS(=O)(=O)Cc2cccs2)cc2ccccc12` [Compound 152, 2-(methylamino)ethyl 6-(aminomethyl)-1-({3-[(thiophen-2-yl)methane-sulfonamido]naphthalen-1-yl}methyl)-1H-pyr-rolo[2,3-b]pyridine-2-carboxylate], the Ki is at most 100 nM. For the molecule `NCc1ccc2cc(C(=O)O)n(Cc3cc(NS(=O)(=O)Cc4cccs4)cc4ccccc34)c2n1` [Compound 153, 6-(aminomethyl)-1-({3-[(thiophen-2-yl)methane-sulfonamido]naphthalen-1-yl}methyl)-1H-pyr-rolo[2,3-b]pyridine-2-carboxylic acid], the inhibition constant (Ki) was at most 100 nM. The same measure for `CCOC(=O)c1cc2ccc(CN)nc2n1Cc1cc(NS(=O)(=O)Cc2cccs2)cc2ccccc12` [Compound 154, ethyl 6-(aminomethyl)-1-({3-[(thiophen-2-yl)-methanesulfonamido]-naphthalen-1-yl}methyl)-1H-pyrrolo[2,3-b]pyr-idine-2-carboxylate]: 100 to 500 nM; for `Cn1cncc1COC(=O)c1cc2ccc(CN)nc2n1Cc1cc(NS(=O)(=O)Cc2ccsc2)cc2ccccc12` [Compound 155, (1-methyl-1H-imidazol-5-yl)methyl 6-(amino-methyl)-1-({3-[(thiophen-3-yl)methanesulfon-amido]naphthalen-1-yl}-methyl)-1H-pyrrolo[2,3-b]pyridine-2-carboxylate]: at most 100 nM. In the case of `NCc1ccc2cc(C(=O)OCCN3CCNCC3)n(Cc3cc(NS(=O)(=O)Cc4ccsc4)cc4ccccc34)c2n1` [Compound 156, 2-(piperazin-1-yl)ethyl 6-(aminomethyl)-1-({3-[(thiophen-3-yl)methane-sulfonamidoJnaphthalen-1-yl}methyl)-1H-pyr-rolo[2,3-b]pyridine-2-carboxylate], the inhibition constant Ki was at most 100 nM.

With `Cn1ccnc1COC(=O)c1cc2ccc(CN)nc2n1Cc1cc(NS(=O)(=O)Cc2ccsc2)cc2ccccc12` [Compound 157, (1-methyl-1H-imidazol-2-yl)methyl 6-amino-methyl)-1-({3-[(thio-phen-3-yl)methanesul-fonamido]naphthalen-1-yl}methyl)-1H-pyrrolo-[2,3-b]pyridine-2-car-boxylate], the Ki is at most 100 nM. To `NCc1ccc2cc(C(=O)OC[C@H]3COCCN3)n(Cc3cc(NS(=O)(=O)Cc4ccsc4)cc4ccccc34)c2n1` [Compound 158, [(3R)-morpholin-3-yl]-methyl 6-(aminometh-yl)-1-({3-[(thiophen-3-yl)methanesulfonamido]-naphthalen-1-yl}meth-yl)-1H-pyrrolo[2,3-b]-pyridine-2-carboxylate] belongs at most 100 nM; to `CC(C)(C)n1cncc1COC(=O)c1cc2ccc(CN)nc2n1Cc1cc(NS(=O)(=O)Cc2ccsc2)cc2ccccc12` [Compound 159, (1-tert-butyl-1H-imid-azol-5-yl)methyl 6-(aminomethyl)-1-({3-[(thiophen-3-yl)methane-sulfonamido]naphthalen-1-yl}methyl)-1H-pyr-rolo[2,3-b]pyridine-2-carboxylate], at most 100 nM.

With `NCc1ccc2cc(C(=O)OCCCN3CCOCC3)n(Cc3cc(NS(=O)(=O)Cc4ccsc4)cc4ccccc34)c2n1` [Compound 160, 3-(morpholin-4-yl)prop-yl 6-(aminomethyl)-1-({3-[(thiophen-3-yl)meth-anesulfonamido]naph-thalen-1-yl}methyl)-1H-pyrrolo[2,3-b]pyridine-2-carboxylate], the inhibition constant (Ki) is at most 100 nM. `CN1CCN(CCOC(=O)c2cc3ccc(CN)nc3n2Cc2cc(NS(=O)(=O)Cc3ccsc3)cc3ccccc23)CC1` [Compound 161, 2-(4-methylpiperazin-1-yl)ethyl 6-(aminometh-yl)-1-({3-[(thiophen-3-yl)methanesulfonamido]-naphthalen-1-yl}meth-yl)-1H-pyrrolo[2,3-b]-pyridine-2-carboxylate]: the inhibitory constant (Ki) is at most 100 nM. To `CN1CCC(CCNC(=O)c2cc3ccc(CN)nc3n2Cc2cc(NS(=O)(=O)Cc3ccsc3)cc3ccccc23)CC1` [Compound 162, 6-(aminomethyl)-N-[2-(1-methylpiperidin-4-yl)-ethyl]-1-({3-[(thiophen-3-yl)methanesulfon-amido]naphthalen-1-yl}-methyl)-1H-pyrrolo[2,3-b]pyridine-2-carboxamide] belongs at most 100 nM.
